According to US8721858B2, “Non-focusing tracers for indirect detection in electrophoretic displacement techniques” (The Board of Trustees of the Leland Stanford Junior …, priority 2010, dated 2014):

Tests used:
[1] = limiting fully ionized mobility, value = mobility × 10^9; cited from earlier work
[2] = Estimated effective mobilities in ITP zones of FIGS. 4a-b; settings: % of −17.8×10^−9 m^2V^−1s^−1
Description: We used numerical codes to predict the composition, pH, and fluorescence intensity of each zone for assay design and theory validation. Transient and steady state problems can be simulated with programs such as Simul 5, or a MATLAB-based program developed in-house. For fast solution of most problems, however, we used a steady-state solver written in-house based on the RFQ method described by Beckers and Everaerts. This code adjusts ion mobility and pKa for ionic strength based on the Davies equation and Robinson-Stokes model, respectively. See Table 1 above for the limiting electrophoretic mobilities and pKas of example chemicals used in simulations.
Further details relating to FIGS. 4a-b are as follows. FIGS. 4a-b show detection of HEPES and MOPS with a counterionic (FIG. 4a) and overspeeding coionic (FIG. 4b) fluorescent non-focusing tracer. Top panes are ratios of zone intensities IA/IL, and bottom panes are corresponding images. The zones are, from left to right, TE (tricine), HEPES, MOPS, and LE (MES). The concentration of the tracer increases in high mobility zones. The mobility of the coionic tracer Alexa Fluor 488 (AF488) is close to that of MES, so it is especially sensitive in this region. […]. […] For the left plots, the LE contains 50 μM R6G. For the right plots, the TE contains 5 μM AF488. […].
As discussed in Theory, the sensitivity of counterspeeders tends to be approximately uniform for all analyte mobilities. In contrast, underspeeders and overspeeders offer the potential advantage of extreme sensitivity to analytes with mobilities approximately equal to that of the tracer. In FIGS. 4a-b, we estimate the effective mobility of the LE (MES) to be −17.8×10^−9 m^2V^−1s^−1, and the effective mobilities of MOPS, HEPES, and tricine to be respectively 58%, 41%, and 30% of that value. For the counterspeeder of FIG. 4a, the ratios of analyte-to-LE zone intensities are similar to the effective mobility ratios for MOPS, HEPES, and tricine (I/IL values of 0.69, 0.51, and 0.34, respectively). […]

Row | Structure (SMILES) | fully-ionized Mobility · 10^9 [1] | effective mobility relative to that of the LE (MES) [2] [%]
1 | CC(=O)O [Acetic acid] | (−1, 42.4) m^2V^−1s^−1 | –
2 | [Ba+2].[OH-].[OH-] [Ba(OH)2] | (+2 ,66) m^2V^−1s^−1 | –
3 | Cl [Chloride] | (−1, 79.1) m^2V^−1s^−1 | –
4 | O=S(=O)(O)CCN1CCN(CCO)CC1 [HEPES, 2-[4-(2-hydroxyethyl)piperazin-1-yl]ethanesulfonic acid] | (−1, 21.8) m^2V^−1s^−1 | 41
5 | O=S(=O)(O)CCCN1CCOCC1 [MOPS, 3-morpholinopropane-1-sulfonic acid] | – | 58
6 | O=C(O)CNC(CO)(CO)CO [Tricine, N-(2-Hydroxy-1,1-bis(hydroxymethyl)ethyl)glycine] | (−1, 26.6) m^2V^−1s^−1 | 30
7 | NC(CO)(CO)CO [Tris, 2-Amino-2-hydroxymethyl-propane-1,3-diol] | (−1, 29.5) m^2V^−1s^−1 | –
